For experiment [1], the target named is Vascular endothelial growth factor receptor 3 (Homo sapiens) (UniProt P35916). Kind of experiment: Inhibition of human VEGFR3 assessed as residual activity at 1 uM using polyEY as substrate in presence of 33P-ATP by ProQinase assay relative to control.
The target in experiment [2] is Ribosomal protein S6 kinase alpha-2 (Homo sapiens) (UniProt Q15349). Kind of experiment: Inhibition of C-terminal kinase domain RPS6KA2 (unknown origin) assessed as remaining activity at 1 uM by Kinome scan method relative to control.
The target in experiment [3] is Serine/threonine-protein kinase Nek6 (Homo sapiens) (UniProt Q9HC98). Briefly: Inhibition of NEK6 (unknown origin) assessed as remaining activity at 1 uM by Kinome scan method relative to control.
The target of experiment [4] is Protein kinase C alpha type (Homo sapiens) (UniProt P17252). Briefly: Inhibition of human PKCalpha assessed as residual activity at 1 uM using 3xChocktide-PKC(19-31) as substrate in presence of 33P-ATP by ProQinase assay relative to control.
The test system of experiment [5] is Leucine-rich repeat serine/threonine-protein kinase 2 (Homo sapiens), Q5S007 [R1441C]. Briefly: Inhibition of human LRRK2 R1441C mutant assessed as residual activity at 1 uM using RBER-CHKtide as substrate in presence of 33P-ATP by ProQinase assay relative to control.
Leucine-rich repeat serine/threonine-protein kinase 2 (Homo sapiens), Q5S007 [R1441C], sequence (Q5S007 whole entry R1441C): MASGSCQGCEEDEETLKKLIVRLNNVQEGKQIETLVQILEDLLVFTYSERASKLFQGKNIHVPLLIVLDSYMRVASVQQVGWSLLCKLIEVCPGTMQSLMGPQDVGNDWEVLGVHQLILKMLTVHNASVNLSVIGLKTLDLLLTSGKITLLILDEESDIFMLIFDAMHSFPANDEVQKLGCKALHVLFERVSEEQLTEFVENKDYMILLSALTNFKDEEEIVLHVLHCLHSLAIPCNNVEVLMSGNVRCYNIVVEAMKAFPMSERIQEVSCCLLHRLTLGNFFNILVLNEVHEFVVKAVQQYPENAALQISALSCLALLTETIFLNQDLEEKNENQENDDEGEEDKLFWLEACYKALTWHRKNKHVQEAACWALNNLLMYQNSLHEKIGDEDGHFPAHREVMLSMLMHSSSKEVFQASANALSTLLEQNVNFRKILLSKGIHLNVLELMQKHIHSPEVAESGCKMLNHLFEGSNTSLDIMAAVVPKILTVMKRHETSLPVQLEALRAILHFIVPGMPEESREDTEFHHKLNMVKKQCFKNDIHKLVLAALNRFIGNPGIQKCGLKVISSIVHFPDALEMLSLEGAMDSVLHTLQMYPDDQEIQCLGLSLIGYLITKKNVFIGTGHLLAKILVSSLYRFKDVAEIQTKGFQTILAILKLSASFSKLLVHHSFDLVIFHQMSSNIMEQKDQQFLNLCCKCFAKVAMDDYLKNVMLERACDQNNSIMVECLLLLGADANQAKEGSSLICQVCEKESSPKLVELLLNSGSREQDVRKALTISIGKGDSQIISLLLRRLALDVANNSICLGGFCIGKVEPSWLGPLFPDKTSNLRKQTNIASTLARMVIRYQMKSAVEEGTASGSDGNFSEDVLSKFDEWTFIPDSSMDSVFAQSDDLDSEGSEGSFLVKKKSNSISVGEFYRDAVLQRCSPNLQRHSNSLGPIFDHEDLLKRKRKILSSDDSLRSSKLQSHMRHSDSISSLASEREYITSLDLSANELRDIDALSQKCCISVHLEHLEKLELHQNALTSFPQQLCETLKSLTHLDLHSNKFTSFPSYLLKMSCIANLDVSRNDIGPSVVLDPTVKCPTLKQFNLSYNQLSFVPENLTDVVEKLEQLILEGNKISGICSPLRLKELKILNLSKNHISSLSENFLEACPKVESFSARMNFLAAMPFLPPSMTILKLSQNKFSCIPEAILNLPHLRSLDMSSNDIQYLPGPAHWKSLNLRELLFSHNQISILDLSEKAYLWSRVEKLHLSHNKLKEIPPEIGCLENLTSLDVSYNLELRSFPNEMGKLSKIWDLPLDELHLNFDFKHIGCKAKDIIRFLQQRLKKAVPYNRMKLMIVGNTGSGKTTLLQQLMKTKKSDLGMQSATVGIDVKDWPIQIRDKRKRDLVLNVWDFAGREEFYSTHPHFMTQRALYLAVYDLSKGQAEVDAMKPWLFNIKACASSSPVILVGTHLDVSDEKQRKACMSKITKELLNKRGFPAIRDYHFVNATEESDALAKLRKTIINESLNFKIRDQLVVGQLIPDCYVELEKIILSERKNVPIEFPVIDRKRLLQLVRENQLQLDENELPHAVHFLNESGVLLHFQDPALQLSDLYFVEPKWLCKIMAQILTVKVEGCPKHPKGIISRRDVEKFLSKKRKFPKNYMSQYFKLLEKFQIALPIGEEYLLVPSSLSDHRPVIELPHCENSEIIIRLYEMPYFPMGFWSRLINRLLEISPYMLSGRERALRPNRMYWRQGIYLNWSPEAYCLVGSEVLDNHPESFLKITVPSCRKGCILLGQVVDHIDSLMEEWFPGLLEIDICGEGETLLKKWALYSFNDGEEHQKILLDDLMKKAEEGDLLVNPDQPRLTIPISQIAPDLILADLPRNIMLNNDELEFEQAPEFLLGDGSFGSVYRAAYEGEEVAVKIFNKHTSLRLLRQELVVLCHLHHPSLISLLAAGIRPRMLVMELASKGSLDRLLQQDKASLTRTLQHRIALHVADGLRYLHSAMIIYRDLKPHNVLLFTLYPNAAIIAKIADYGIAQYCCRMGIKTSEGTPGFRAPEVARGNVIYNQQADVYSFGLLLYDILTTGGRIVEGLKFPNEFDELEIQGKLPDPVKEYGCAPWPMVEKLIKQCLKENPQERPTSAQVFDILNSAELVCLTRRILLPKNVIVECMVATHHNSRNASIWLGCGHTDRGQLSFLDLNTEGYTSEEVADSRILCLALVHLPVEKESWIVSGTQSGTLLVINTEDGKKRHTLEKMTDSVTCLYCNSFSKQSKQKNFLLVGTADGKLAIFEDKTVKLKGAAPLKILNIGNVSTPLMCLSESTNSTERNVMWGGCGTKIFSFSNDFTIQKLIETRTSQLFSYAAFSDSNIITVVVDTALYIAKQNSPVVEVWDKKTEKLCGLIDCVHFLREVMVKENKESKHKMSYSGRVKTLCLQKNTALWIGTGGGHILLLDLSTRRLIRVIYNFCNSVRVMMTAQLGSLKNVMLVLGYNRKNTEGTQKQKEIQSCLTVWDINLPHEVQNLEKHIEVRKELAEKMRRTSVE
Experiment [6] addresses Mitogen-activated protein kinase 1 (Homo sapiens) (UniProt P28482). Briefly: Inhibition of ERK2 (unknown origin) assessed as remaining activity at 1 uM by Kinome scan method relative to control.
Experiment [7] deals with Non-receptor tyrosine-protein kinase TYK2 (Homo sapiens) (UniProt P29597). Kind of experiment: Inhibition of TYK2 JH2 domain (unknown origin) assessed as remaining activity at 1 uM by Kinome scan method relative to control.
Non-receptor tyrosine-protein kinase TYK2 (Homo sapiens), sequence (P29597 whole entry, the tested form may be a part): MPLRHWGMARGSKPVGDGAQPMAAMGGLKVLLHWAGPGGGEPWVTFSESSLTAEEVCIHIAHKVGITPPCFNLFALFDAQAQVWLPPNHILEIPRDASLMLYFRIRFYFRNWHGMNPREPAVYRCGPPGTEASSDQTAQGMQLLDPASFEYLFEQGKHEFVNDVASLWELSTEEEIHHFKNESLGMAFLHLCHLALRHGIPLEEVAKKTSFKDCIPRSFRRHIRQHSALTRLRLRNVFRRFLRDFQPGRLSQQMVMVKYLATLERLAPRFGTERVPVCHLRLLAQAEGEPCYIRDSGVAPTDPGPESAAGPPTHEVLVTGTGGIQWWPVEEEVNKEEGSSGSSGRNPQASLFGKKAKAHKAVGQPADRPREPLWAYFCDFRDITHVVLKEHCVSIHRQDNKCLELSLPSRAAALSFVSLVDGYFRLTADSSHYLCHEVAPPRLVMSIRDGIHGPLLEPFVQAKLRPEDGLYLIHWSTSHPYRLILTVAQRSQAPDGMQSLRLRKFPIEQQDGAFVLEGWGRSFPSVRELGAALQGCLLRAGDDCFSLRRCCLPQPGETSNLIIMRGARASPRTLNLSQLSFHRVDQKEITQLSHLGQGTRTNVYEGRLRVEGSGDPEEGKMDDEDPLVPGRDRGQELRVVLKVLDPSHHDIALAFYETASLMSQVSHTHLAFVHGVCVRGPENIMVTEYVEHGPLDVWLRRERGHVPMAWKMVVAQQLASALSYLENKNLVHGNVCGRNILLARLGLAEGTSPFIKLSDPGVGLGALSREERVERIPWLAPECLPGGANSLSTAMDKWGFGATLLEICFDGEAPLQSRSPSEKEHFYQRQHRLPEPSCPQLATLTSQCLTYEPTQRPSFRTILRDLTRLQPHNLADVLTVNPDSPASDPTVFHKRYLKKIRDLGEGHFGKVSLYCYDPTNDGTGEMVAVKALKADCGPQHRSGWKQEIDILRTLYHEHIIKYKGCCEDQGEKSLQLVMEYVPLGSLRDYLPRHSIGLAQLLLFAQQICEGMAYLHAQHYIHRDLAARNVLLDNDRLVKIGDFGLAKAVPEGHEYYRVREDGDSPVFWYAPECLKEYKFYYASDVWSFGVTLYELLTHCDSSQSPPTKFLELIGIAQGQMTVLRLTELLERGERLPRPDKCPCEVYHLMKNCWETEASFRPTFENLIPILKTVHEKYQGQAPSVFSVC
In experiment [8] the target is Dual specificity protein kinase CLK1 (Homo sapiens) (UniProt P49759). Kind of experiment: Inhibition of CLK1 (unknown origin) assessed as remaining activity at 1 uM by Kinome scan method relative to control.
Experiment [9] has as its target MAP kinase p38 (Homo sapiens) (UniProt O15264+Q15759+Q16539+P53778). Briefly: Inhibition of p38-MAPK in human THP-1 cells assessed as change in HSP27 phosphorylation at Ser82 level at 80 nM preincubated for 30 mins in the presence of TNFalpha stimulation for 20 mins by western blot analysis. It counts as cell-based. A general note: Immunoblotting shows a protein as a band on a membrane.

Experiment [10] in a line: Anti-inflammatory activity against human derived high respond PBMC cells assessed as inhibition in stimulated MCP-1 chemokine release at 10 uM incubated for 2 hrs in the presence of LPS/SEB/aCD28 by Luminex based sandwich immunoassay relative to control. It is filed as functional.
Experiment [11] addresses Ephrin type-B receptor 1 (Homo sapiens) (UniProt P54762). Kind of experiment: Inhibition of EPHB1 (unknown origin) assessed as remaining activity at 1 uM by Kinome scan method relative to control.
In experiment [12] the test system is Fibroblast growth factor receptor 1 (Homo sapiens), P11362 [V561M]. Kind of experiment: Inhibition of human FGFR1 V561M mutant assessed as residual activity at 1 uM using Poly(Ala,Glu,Lys,Tyr)6:2:5:1 as substrate in presence of 33P-ATP by ProQinase assay relative to control.
In experiment [13] the target is MAP kinase-activated protein kinase 5 (Homo sapiens) (UniProt Q8IW41). Briefly: Inhibition of MAPKAPK5 (unknown origin) assessed as remaining activity at 1 uM by Kinome scan method relative to control.
The target of experiment [14] is Non-receptor tyrosine-protein kinase TYK2 (Homo sapiens) (UniProt P29597). Kind of experiment: Inhibition of human TYK2 assessed as residual activity at 1 uM using poly(Ala,Glu,Lys,Tyr)6:2:5:1 as substrate in presence of 33P-ATP by ProQinase assay relative to control.
Experiment [15] concerns the target Ephrin type-A receptor 7 (Homo sapiens) (UniProt Q15375). Briefly: Inhibition of EPHA7 (unknown origin) assessed as remaining activity at 1 uM by Kinome scan method relative to control.
Experiment [16] in a line: Anti-inflammatory activity against human derived medium respond PBMC cells assessed as inhibition in stimulated IL-17A cytokine release incubated for 2 hrs in the presence of LPS/SEB/aCD28 by Luminex based sandwich immunoassay. It counts as functional, cell-based.
In experiment [17] the target is T1, Inhibitor of nuclear factor kappa-B kinase subunit alpha (Homo sapiens) (UniProt O15111).
T1 sequence (whole entry): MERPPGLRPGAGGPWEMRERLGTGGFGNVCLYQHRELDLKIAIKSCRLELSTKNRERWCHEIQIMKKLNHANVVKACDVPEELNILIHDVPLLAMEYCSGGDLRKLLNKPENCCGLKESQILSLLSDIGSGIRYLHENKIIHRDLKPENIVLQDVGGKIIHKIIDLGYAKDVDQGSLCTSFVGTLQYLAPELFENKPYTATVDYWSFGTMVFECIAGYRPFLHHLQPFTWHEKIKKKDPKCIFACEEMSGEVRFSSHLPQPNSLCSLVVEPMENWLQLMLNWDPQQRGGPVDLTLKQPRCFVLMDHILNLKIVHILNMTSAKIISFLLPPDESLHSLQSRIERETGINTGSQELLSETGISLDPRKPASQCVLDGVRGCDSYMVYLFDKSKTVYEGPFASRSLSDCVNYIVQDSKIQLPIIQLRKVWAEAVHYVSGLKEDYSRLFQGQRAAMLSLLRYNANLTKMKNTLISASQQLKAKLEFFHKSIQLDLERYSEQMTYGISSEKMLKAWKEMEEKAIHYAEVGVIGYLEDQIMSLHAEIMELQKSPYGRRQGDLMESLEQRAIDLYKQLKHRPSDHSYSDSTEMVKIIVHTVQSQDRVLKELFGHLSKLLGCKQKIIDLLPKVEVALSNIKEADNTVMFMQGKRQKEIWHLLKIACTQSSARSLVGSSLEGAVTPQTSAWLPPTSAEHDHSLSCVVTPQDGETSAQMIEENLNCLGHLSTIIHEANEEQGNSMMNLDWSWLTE
Briefly: Inhibition of human IKKalpha assessed as residual activity at 1 uM using RBER-CHKtide as substrate in presence of 33P-ATP by ProQinase assay relative to control.

Experiment [18] deals with Platelet-derived growth factor receptor alpha (Homo sapiens) (UniProt P16234). Kind of experiment: Inhibition of PDGFRalpha (unknown origin) assessed as remaining activity at 1 uM by Kinome scan method relative to control.
In experiment [19] the target is AP2-associated protein kinase 1 (Homo sapiens) (UniProt Q2M2I8). Kind of experiment: Inhibition of AAK1 (unknown origin) assessed as remaining activity at 1 uM by Kinome scan method relative to control.
In experiment [20] the target is Eukaryotic translation initiation factor 2-alpha kinase 1 (Homo sapiens) (UniProt Q9BQI3). Briefly: Inhibition of human HRI assessed as residual activity at 1 uM using casein as substrate in presence of 33P-ATP by ProQinase assay relative to control.
Experiment [21] deals with Tyrosine-protein kinase SYK (Homo sapiens) (UniProt P43405). Briefly: Inhibition of human SYK (1 to 635 residues) assessed as residual activity at 1 uM using polyEY as substrate in presence of 33P-ATP by ProQinase assay relative to control.

The results in this text go back to ChEMBL document CHEMBL5696441 (Nat Chem Biol, 2011).

In general, inhibition refers to the change of the read-out against control, counted positive when it falls. As a reminder, the IC50 is the concentration at which inhibition is half-maximal.

Active and inactive are the calls of the source. The rule behind the calls is not given here.

Ephrin type-B receptor 1 (Homo sapiens), sequence (P54762 whole entry): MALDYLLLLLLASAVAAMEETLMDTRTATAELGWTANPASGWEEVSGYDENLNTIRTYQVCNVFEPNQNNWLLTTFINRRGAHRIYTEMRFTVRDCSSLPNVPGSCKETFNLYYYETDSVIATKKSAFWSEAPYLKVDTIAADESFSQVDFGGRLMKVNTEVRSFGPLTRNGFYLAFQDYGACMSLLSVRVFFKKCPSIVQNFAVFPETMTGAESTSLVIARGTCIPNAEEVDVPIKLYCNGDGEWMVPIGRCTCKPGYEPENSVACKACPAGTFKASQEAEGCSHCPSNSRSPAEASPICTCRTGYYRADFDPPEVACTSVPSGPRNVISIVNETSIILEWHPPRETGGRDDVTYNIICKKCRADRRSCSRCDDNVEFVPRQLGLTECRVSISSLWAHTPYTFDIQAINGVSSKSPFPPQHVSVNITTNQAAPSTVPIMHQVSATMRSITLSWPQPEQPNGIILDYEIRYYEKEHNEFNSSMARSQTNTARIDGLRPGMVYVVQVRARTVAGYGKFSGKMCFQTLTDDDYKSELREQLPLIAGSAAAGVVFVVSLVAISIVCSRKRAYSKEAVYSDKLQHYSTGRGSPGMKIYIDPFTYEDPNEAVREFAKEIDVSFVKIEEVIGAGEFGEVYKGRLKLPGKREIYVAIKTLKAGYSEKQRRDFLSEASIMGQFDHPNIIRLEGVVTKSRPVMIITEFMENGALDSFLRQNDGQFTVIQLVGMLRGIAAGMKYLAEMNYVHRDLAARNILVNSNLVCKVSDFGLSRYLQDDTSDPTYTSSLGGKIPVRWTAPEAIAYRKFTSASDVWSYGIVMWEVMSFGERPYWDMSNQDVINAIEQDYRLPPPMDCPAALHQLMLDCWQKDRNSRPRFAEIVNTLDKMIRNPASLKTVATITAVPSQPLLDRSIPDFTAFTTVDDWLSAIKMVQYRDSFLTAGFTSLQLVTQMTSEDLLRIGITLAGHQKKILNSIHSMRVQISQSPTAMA
Mitogen-activated protein kinase 1 (Homo sapiens), sequence (P28482 whole entry, the tested form may be a part): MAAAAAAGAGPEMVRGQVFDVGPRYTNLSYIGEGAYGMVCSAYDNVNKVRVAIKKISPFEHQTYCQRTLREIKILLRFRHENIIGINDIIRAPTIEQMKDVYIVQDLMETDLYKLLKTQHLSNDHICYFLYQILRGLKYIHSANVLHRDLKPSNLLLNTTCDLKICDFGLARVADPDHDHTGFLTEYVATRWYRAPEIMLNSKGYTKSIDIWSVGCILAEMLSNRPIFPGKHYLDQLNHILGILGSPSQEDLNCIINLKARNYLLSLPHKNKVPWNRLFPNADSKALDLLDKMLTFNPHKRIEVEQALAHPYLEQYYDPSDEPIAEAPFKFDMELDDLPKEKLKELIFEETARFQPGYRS

Regarding `O=C1c2ccc(Nc3ccc(F)cc3F)cc2CCc2ccc(OC[C@H](O)CO)cc21` [Skepinone-L], the Activity in [1] was determined as 100%; in experiment [2], 100%; in [3] it was 100%; in experiment [4], 96%; in [5] it was 89%; in experiment [6], 100%. The Activity in experiment [7] was 100%; in experiment [8] it was 99%; in [11], 98%; in [12] it was 89%; in experiment [13], 100%; in experiment [14], 96%. Also, the Activity in experiment [15] was 89%; in [17] it was 88%; in [18], 100%; in experiment [19] it was 100%; in experiment [20] it was 106%; in experiment [21], 98%. Further, in experiment [9], the inhibition result was “Active”. Moreover, the inhibition at 10 µM in experiment [10] turned out to be 25%. Besides, the IC50 in experiment [16] was found to be 7.85 µM.
